Legend:
Assay type in all cases: in vivo
[1] = test system: Echinochloa crus-galli; assay: Test Example 1: herbicidal effect test by treatment of rice paddy soil (immediately after seeding); conditions: 120 g/10a active ingredient, dry weight vs untreated area, 14 days after treatment
How it was run: (§1)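 Paddy soil in pots with compound fertilizer, puddled; 30 seeds per species sown at 0–1 cm, flooded ~3 cm, greenhouse. Water-diluted emulsions dropped onto water immediately after seeding at 120 g active ingredient per 10 ares, duplicate. Herbicidal rate (%) from plant dry weight versus untreated, 14 days after treatment.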

[2] = test system: Scirpus juncoides; assay: as above; conditions: 120 g/10a active ingredient, dry weight vs untreated area, 14 days after treatment
How it was run: as §1

[3] = test system: broad leaf weeds (Lindernia pyxidaria and Monochoria vaginalis); assay: as above; conditions: 120 g/10a active ingredient, dry weight vs untreated area, 14 days after treatment
How it was run: as §1

[4] = test system: Echinochloa crus-galli; assay: Test Example 2: herbicidal effect test by treatment during growing period in paddy rice cultivation (seven days after seeding); conditions: 120 g/10a active ingredient, assessed 14 days after treatment, dry weight vs untreated area
How it was run: (§2)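 Emulsion formulations, diluted in water, applied dropwise to flooded pots (about 3 cm water) 7 days post-seeding at 120 g a.i./10 ares. Weeds sown 30 seeds each, 0–1 cm deep in puddled paddy soil; greenhouse. Readout: % reduction in plant dry weight vs untreated, day 14, duplicates.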

[5] = test system: Scirpus juncoides; assay: as above; conditions: 120 g/10a active ingredient, assessed 14 days after treatment, dry weight vs untreated area
How it was run: as §2

[6] = test system: broad leaf weeds (Lindernia pyxidaria and Monochoria vaginalis); assay: as above; conditions: 120 g/10a active ingredient, assessed 14 days after treatment, dry weight vs untreated area
How it was run: as §2

[7] = test system: Amaranthus viridis; assay: Test Example 3: herbicidal effect test by treatment of dry field farming soil (one day after seeding); conditions: 120 g/10a active ingredient, evaluated 14 days after treatment
How it was run: (§3)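 Herbicidal rate (%) = {1 − treated/untreated mean plant dry weight} × 100, scored 14 days after spraying, duplicate pots per concentration. Emulsified compound was water-diluted and applied to soil surface one day post-seeding at 120 g a.i. per 10 ares.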

[8] = test system: Chenopodium album; assay: as above; conditions: 120 g/10a active ingredient, evaluated 14 days after treatment
How it was run: as §3

[9] = test system: Echinochloa crus-galli; assay: as above; conditions: 120 g/10a active ingredient, evaluated 14 days after treatment
How it was run: as §3

[10] = test system: southern crabgrass; assay: as above; conditions: 120 g/10a active ingredient, evaluated 14 days after treatment
How it was run: as §3

[11] = test system: Amaranthus viridis; assay: Test Example 4: herbicidal effect test by treatment of leave and stem in dry field farming (seven days after seeding); conditions: 120 g/10a active ingredient; emulsion sprayed seven days after seeding; evaluated 14 days after treatment
How it was run: (§4)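 Weeds were seeded at 20 seeds per species into the top 1 cm of alluvial upland soil in pots, then sprayed 7 days after seeding with water-diluted emulsifiable concentrate at 100 L/10 a, giving 120 g active ingredient/10 a. Duplicate pots; herbicidal rate (%) was 14 days post-treatment, from dry weight versus untreated.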

[12] = test system: Chenopodium album; assay: as above; conditions: 120 g/10a active ingredient; emulsion sprayed seven days after seeding; evaluated 14 days after treatment
How it was run: as §4

[13] = test system: Echinochloa crus-galli; assay: as above; conditions: 120 g/10a active ingredient; emulsion sprayed seven days after seeding; evaluated 14 days after treatment
How it was run: as §4

[14] = test system: southern crabgrass; assay: as above; conditions: 120 g/10a active ingredient; emulsion sprayed seven days after seeding; evaluated 14 days after treatment
How it was run: as §4

COCC(C)n1oc(=O)c(Cc2ccccc2N(C(=O)Cc2ccccc2)S(=O)(=O)C(F)(F)F)c1C (centres unmarked) [Compound 1-506]
Herbicidal rate (%) Echinochloa crus-galli [1]: 90% | Herbicidal rate (%) Scirpus juncoides [2]: 90% | Herbicidal rate (%) Lindernia pyxidaria [3]: 90% | Herbicidal rate (%) Monochoria vaginalis [3]: 90% | Herbicidal rate (%) Echinochloa crus-galli [4]: 90% | Herbicidal rate (%) Scirpus juncoides [5]: 90% | Herbicidal rate (%) Lindernia pyxidaria [6]: 90% | Herbicidal rate (%) Monochoria vaginalis [6]: 90% | herbicidal rate, Amaranthus viridis [7]: 90% | herbicidal rate, Chenopodium album [8]: 90% | herbicidal rate, Echinochloa crus-galli [9]: 90% | herbicidal rate, southern crabgrass [10]: 90% | herbicidal effect (herbicidal rate), Amaranthus viridis [11]: 40% | herbicidal effect (herbicidal rate), Chenopodium album [12]: 40% | herbicidal effect (herbicidal rate), Echinochloa crus-galli [13]: 90% | herbicidal effect (herbicidal rate), southern crabgrass [14]: 90%

CCC(C)n1oc(=O)c(Cc2ccccc2N(C(=O)C2CCCO2)S(=O)(=O)C(F)(F)F)c1C (centres unmarked) [Compound 1-522]
Herbicidal rate (%) Echinochloa crus-galli [1]: 90% | Herbicidal rate (%) Scirpus juncoides [2]: 90% | Herbicidal rate (%) Lindernia pyxidaria [3]: 90% | Herbicidal rate (%) Monochoria vaginalis [3]: 90% | Herbicidal rate (%) Echinochloa crus-galli [4]: 90% | Herbicidal rate (%) Scirpus juncoides [5]: 90% | Herbicidal rate (%) Lindernia pyxidaria [6]: 90% | Herbicidal rate (%) Monochoria vaginalis [6]: 90% | herbicidal rate, Amaranthus viridis [7]: 90% | herbicidal rate, Chenopodium album [8]: 90% | herbicidal rate, Echinochloa crus-galli [9]: 90% | herbicidal rate, southern crabgrass [10]: 90% | herbicidal effect (herbicidal rate), Amaranthus viridis [11]: 40% | herbicidal effect (herbicidal rate), Chenopodium album [12]: 40% | herbicidal effect (herbicidal rate), Echinochloa crus-galli [13]: 90% | herbicidal effect (herbicidal rate), southern crabgrass [14]: 90%

CCC(C)n1oc(=O)c(Cc2ccccc2N(C(=O)c2ccccn2)S(=O)(=O)C(F)(F)F)c1C (centres unmarked) [Compound 1-528]
Herbicidal rate (%) Echinochloa crus-galli [1]: 90% | Herbicidal rate (%) Scirpus juncoides [2]: 90% | Herbicidal rate (%) Lindernia pyxidaria [3]: 90% | Herbicidal rate (%) Monochoria vaginalis [3]: 90% | Herbicidal rate (%) Echinochloa crus-galli [4]: 90% | Herbicidal rate (%) Scirpus juncoides [5]: 90% | Herbicidal rate (%) Lindernia pyxidaria [6]: 90% | Herbicidal rate (%) Monochoria vaginalis [6]: 90% | herbicidal rate, Amaranthus viridis [7]: 90% | herbicidal rate, Chenopodium album [8]: 90% | herbicidal rate, Echinochloa crus-galli [9]: 90% | herbicidal rate, southern crabgrass [10]: 90% | herbicidal effect (herbicidal rate), Amaranthus viridis [11]: 40% | herbicidal effect (herbicidal rate), Chenopodium album [12]: 40% | herbicidal effect (herbicidal rate), Echinochloa crus-galli [13]: 90% | herbicidal effect (herbicidal rate), southern crabgrass [14]: 90%

COC(=O)N(c1ccccc1Cc1c(C)n(C(C)C)oc1=O)S(=O)(=O)C(F)(F)F [Compound 1-575]
Herbicidal rate (%) Echinochloa crus-galli [1]: 90% | Herbicidal rate (%) Scirpus juncoides [2]: 100% | Herbicidal rate (%) Lindernia pyxidaria [3]: 100% | Herbicidal rate (%) Monochoria vaginalis [3]: 100% | Herbicidal rate (%) Echinochloa crus-galli [4]: 90% | Herbicidal rate (%) Scirpus juncoides [5]: 100% | Herbicidal rate (%) Lindernia pyxidaria [6]: 100% | Herbicidal rate (%) Monochoria vaginalis [6]: 100% | herbicidal rate, Amaranthus viridis [7]: 40% | herbicidal rate, Chenopodium album [8]: 40% | herbicidal rate, Echinochloa crus-galli [9]: 90% | herbicidal rate, southern crabgrass [10]: 90% | herbicidal effect (herbicidal rate), Amaranthus viridis [11]: 30% | herbicidal effect (herbicidal rate), Chenopodium album [12]: 90% | herbicidal effect (herbicidal rate), Echinochloa crus-galli [13]: 90% | herbicidal effect (herbicidal rate), southern crabgrass [14]: 90%

COC(=O)N(c1ccccc1Cc1c(C)n(C(C)(C)C)oc1=O)S(=O)(=O)C(F)(F)F [Compound 1-576]
Herbicidal rate (%) Echinochloa crus-galli [1]: 90% | Herbicidal rate (%) Scirpus juncoides [2]: 90% | Herbicidal rate (%) Lindernia pyxidaria [3]: 90% | Herbicidal rate (%) Monochoria vaginalis [3]: 90% | Herbicidal rate (%) Echinochloa crus-galli [4]: 90% | Herbicidal rate (%) Scirpus juncoides [5]: 90% | Herbicidal rate (%) Lindernia pyxidaria [6]: 90% | Herbicidal rate (%) Monochoria vaginalis [6]: 90% | herbicidal rate, Amaranthus viridis [7]: 90% | herbicidal rate, Chenopodium album [8]: 90% | herbicidal rate, Echinochloa crus-galli [9]: 90% | herbicidal rate, southern crabgrass [10]: 90% | herbicidal effect (herbicidal rate), Amaranthus viridis [11]: 40% | herbicidal effect (herbicidal rate), Chenopodium album [12]: 40% | herbicidal effect (herbicidal rate), Echinochloa crus-galli [13]: 90% | herbicidal effect (herbicidal rate), southern crabgrass [14]: 90%

COC(=O)N(c1ccccc1Cc1c(C)n(CC(C)C)oc1=O)S(=O)(=O)C(F)(F)F [Compound 1-580]
Herbicidal rate (%) Echinochloa crus-galli [1]: 90% | Herbicidal rate (%) Scirpus juncoides [2]: 90% | Herbicidal rate (%) Lindernia pyxidaria [3]: 90% | Herbicidal rate (%) Monochoria vaginalis [3]: 90% | Herbicidal rate (%) Echinochloa crus-galli [4]: 90% | Herbicidal rate (%) Scirpus juncoides [5]: 90% | Herbicidal rate (%) Lindernia pyxidaria [6]: 90% | Herbicidal rate (%) Monochoria vaginalis [6]: 90% | herbicidal rate, Amaranthus viridis [7]: 90% | herbicidal rate, Chenopodium album [8]: 90% | herbicidal rate, Echinochloa crus-galli [9]: 90% | herbicidal rate, southern crabgrass [10]: 90% | herbicidal effect (herbicidal rate), Amaranthus viridis [11]: 40% | herbicidal effect (herbicidal rate), Chenopodium album [12]: 40% | herbicidal effect (herbicidal rate), Echinochloa crus-galli [13]: 90% | herbicidal effect (herbicidal rate), southern crabgrass [14]: 90%

CCC(C)Cn1oc(=O)c(Cc2ccccc2N(C(=O)OC)S(=O)(=O)C(F)(F)F)c1C (centres unmarked) [Compound 1-583]
Herbicidal rate (%) Echinochloa crus-galli [1]: 100% | Herbicidal rate (%) Scirpus juncoides [2]: 90% | Herbicidal rate (%) Lindernia pyxidaria [3]: 90% | Herbicidal rate (%) Monochoria vaginalis [3]: 90% | Herbicidal rate (%) Echinochloa crus-galli [4]: 100% | Herbicidal rate (%) Scirpus juncoides [5]: 90% | Herbicidal rate (%) Lindernia pyxidaria [6]: 80% | Herbicidal rate (%) Monochoria vaginalis [6]: 90% | herbicidal rate, Amaranthus viridis [7]: 60% | herbicidal rate, Chenopodium album [8]: 50% | herbicidal rate, Echinochloa crus-galli [9]: 100% | herbicidal rate, southern crabgrass [10]: 90% | herbicidal effect (herbicidal rate), Amaranthus viridis [11]: 50% | herbicidal effect (herbicidal rate), Chenopodium album [12]: 50% | herbicidal effect (herbicidal rate), Echinochloa crus-galli [13]: 80% | herbicidal effect (herbicidal rate), southern crabgrass [14]: 60%

COCC(C)n1oc(=O)c(Cc2ccccc2N(C(=O)OC)S(=O)(=O)C(F)(F)F)c1C (centres unmarked) [Compound 1-587]
Herbicidal rate (%) Echinochloa crus-galli [1]: 90% | Herbicidal rate (%) Scirpus juncoides [2]: 90% | Herbicidal rate (%) Lindernia pyxidaria [3]: 90% | Herbicidal rate (%) Monochoria vaginalis [3]: 90% | Herbicidal rate (%) Echinochloa crus-galli [4]: 90% | Herbicidal rate (%) Scirpus juncoides [5]: 90% | Herbicidal rate (%) Lindernia pyxidaria [6]: 90% | Herbicidal rate (%) Monochoria vaginalis [6]: 90% | herbicidal rate, Amaranthus viridis [7]: 90% | herbicidal rate, Chenopodium album [8]: 90% | herbicidal rate, Echinochloa crus-galli [9]: 90% | herbicidal rate, southern crabgrass [10]: 90% | herbicidal effect (herbicidal rate), Amaranthus viridis [11]: 40% | herbicidal effect (herbicidal rate), Chenopodium album [12]: 40% | herbicidal effect (herbicidal rate), Echinochloa crus-galli [13]: 90% | herbicidal effect (herbicidal rate), southern crabgrass [14]: 90%
